Data set [1] is described as follows: Ratio of drug uptake in 129/C57BL/6J mouse brain to plasma at 30 mg/kg, po after 2 hrs by UHPLC/MS/MS analysis. To be noted: brain and plasma, read-out: BPR. The class given is ADME, organism-based.
Another data set is described as follows: physchem. To be noted: 1-octanol/PBS, pH 7.4.

As usually defined, the logD is the decadic logarithm of the distribution of all forms, ionised or not, between an organic phase and buffer at a given pH. Low values mean a more hydrophilic compound, high ones a more lipophilic compound. As to `COc1ccc(F)c([C@H](C)Nc2cc(F)c(S(=O)(=O)Nc3cscn3)cc2Cl)c1`, in data set [1], the Kp at 2 h was determined as 0.28. Further, the logD at 1 h in “physchem” stood at 3.4.

As to `C[C@H](Nc1cc(F)c(S(=O)(=O)Nc2cscn2)cc1Cl)c1cc(CN2CCC2)ccc1F`, the logD at 1 h in “physchem” was 1.5.

`O=S(=O)(Nc1cscn1)c1cc(Cl)c(NCc2cc(CN3CCC3)ccc2F)cc1F`: the logD at 1 h in “physchem” is 1.4. This logD at 1 h and that of the molecule before are within 0.2 log units of each other.

For the origin of these results see ChEMBL document CHEMBL4414586, “Identification of CNS-Penetrant Aryl Sulfonamides as Isoform-Selective NaV1.6 Inhibitors with Efficacy in Mouse Models of Epilepsy” (J Med Chem, 2019).
